“Also recorded” adds a separate entry of the source. Where two headings read alike, the source gives them in different places.
Key:
acetylcholinesterase = acetylcholinesterase (Homo sapiens (Human), UniProt P22303); assay: biochemical; format: biochemical; conditions: for potency on acetylcholinesterase compared with positive control drug donepezil hydrochloride: in vitro, enzymology level
[1] = test system: learning and memory disorder of mice induced by scopolamine; assay: Morris water maze test, senile dementia mice model induced by scopolamine; format: in vivo; conditions: Table 6, scopolamine 1 mg/kg
[2] = IC50 (nM), inhibition activity on acetylcholinesterase, modified Ellman method
[3] = read-out: IC50 (nM), inhibition activity on acetylcholinesterase
[4] = modified Ellman method, read-out: IC50 (nM), inhibition activity on acetylcholinesterase

Chain of acetylcholinesterase (P22303 32-614, species assumed): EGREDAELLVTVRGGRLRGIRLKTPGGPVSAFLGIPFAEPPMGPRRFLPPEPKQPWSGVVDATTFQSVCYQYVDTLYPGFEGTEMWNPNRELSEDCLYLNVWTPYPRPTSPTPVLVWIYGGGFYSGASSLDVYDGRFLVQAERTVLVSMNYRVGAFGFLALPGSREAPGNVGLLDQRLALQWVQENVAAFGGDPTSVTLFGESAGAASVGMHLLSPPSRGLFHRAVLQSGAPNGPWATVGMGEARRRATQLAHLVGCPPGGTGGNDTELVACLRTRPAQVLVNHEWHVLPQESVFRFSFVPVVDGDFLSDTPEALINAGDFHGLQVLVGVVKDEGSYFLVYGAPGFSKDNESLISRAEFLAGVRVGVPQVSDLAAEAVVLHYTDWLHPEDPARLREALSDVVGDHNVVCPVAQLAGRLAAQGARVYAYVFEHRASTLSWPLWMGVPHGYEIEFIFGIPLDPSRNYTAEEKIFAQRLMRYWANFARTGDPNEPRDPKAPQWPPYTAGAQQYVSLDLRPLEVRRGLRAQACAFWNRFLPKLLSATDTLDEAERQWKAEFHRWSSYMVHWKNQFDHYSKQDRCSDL

Row | SMILES | potency on acetylcholinesterase compared with positive control drug donepezil hydrochloride (acetylcholinesterase) | IC50 (acetylcholinesterase; [3]) | IC50 (acetylcholinesterase; [4]) | also measured
1 | O=C1c2cc3c(cc2CN1CCC1CCN(Cc2ccccc2)CC1)OCO3 [Compound I-5, 6-[2-(1-benzyl-4-piperidyl)ethyl]-5H-[1,3]dioxolo[4,5-f]isoindol-7-one] | even lower | – | – | IC50 (acetylcholinesterase; [2]): 502 nM
2 | O=C1c2cc3c(cc2C2(CC2)N1CCC1CCN(Cc2c(F)cccc2F)CC1)OCO3 [Compound I-25, 6-[2-[1-[(2,6-difluorophenyl)methyl]-4-piperidyl]ethyl]spiro[[1,3]dioxolo[4,5-f]isoindole-7,1′-cyclopropane]-5-one] | slightly lower potency than the positive control drug | 249 nM | – | –
3 | N#Cc1ccccc1CN1CCC(CCN2C(=O)c3cc4c(cc3C23CC3)OCO4)CC1 [Compound I-24, 6-[2-[1-[(2-cyanophenyl)methyl]-4-piperidyl]ethyl]spiro[[1,3]dioxolo[4,5-f]isoindole-7,1′-cyclopropane]-5-one] | relative low activity | – | > 2000 nM | –
4 | COc1ccc(CN2CCC(CCN3C(=O)c4cc5c(cc4C34CC4)OCO5)CC2)cc1 [Compound I-28, 6-[2-[1-[(4-methoxyphenyl)methyl]-4-piperidyl]ethyl]spiro[[1, 3]dioxolo[4,5-f]isoindole-7,1′-cyclopropane]-5-one] | relative low activity | > 2000 nM | – | –
5 | O=C1c2cc3c(cc2C2(CC2)N1CCC1CCN(Cc2cccnc2)CC1)OCO3 [Compound I-30, 6-[2-[1-(3-pyridylmethyl)-4-piperidyl]ethyl]spiro[[1,3]dioxolo[4,5-f]isoindole-7,1′-cyclopropane]-5-one] | relative low activity | – | > 2000 nM | –
6 | O=C1c2cc3c(cc2C2(CC2)N1CCC1CCN(Cc2ccccc2Cl)CC1)OCO3 [Compound I-21, 6-[2-[1-[(2-chlorophenyl)methyl]-4-piperidyl]ethyl]spiro[[1,3]dioxolo[4,5-f]isoindole-7,1′-cyclopropane]-5-one] | even lower | – | 653 nM | –
7 | O=C1c2cc3c(cc2C2(CC2)N1CCC1CCN(Cc2ncccn2)CC1)OCO3 [Compound I-32, 6-[2-[1-(pyrimidin-2-ylmethyl)-4-piperidyl]ethyl]spiro[[1,3]dioxolo[4,5-f]isoindole-7,1′-cyclopropane]-5-one] | relative low activity | – | > 2000 nM | –
8 | O=C1c2cc3c(cc2CN1CCC1CCN(Cc2ccccc2F)CC1)OCO3 [Compound I-6, 6-[2-[1-[(2-fluorophenyl)methyl]-4-piperidyl]ethyl]-5H-[1,3]dioxolo[4,5-f]isoindol-7-one] | even lower | – | 483 nM | –
9 | COc1cccc(CN2CCC(CCN3C(=O)c4cc5c(cc4C34CC4)OCO5)CC2)c1 [Compound I-27, 6-[2-[1-[(3-methoxyphenyl)methyl]-4-piperidyl]ethyl]spiro[[1, 3]dioxolo[4,5-f]isoindole-7,1′-cyclopropane]-5-one] | relative low activity | – | > 2000 nM | –
10 | CC1(C)c2cc3c(cc2C(=O)N1CCC1CCN(Cc2ccc(F)cc2)CC1)OCO3 [Compound I-16, 6-[2-[1-[(4-fluorophenyl)methyl]-4-piperidyl]ethyl]-7,7-dimethyl-[1,3]dioxolo[4,5-f]isoindol-5-one] | relative low activity | – | > 2000 nM | –
11 | O=C1c2cc3c(cc2C(=O)N1CCC1CCN(Cc2ccccc2F)CC1)OCO3 [Compound I-2, 6-[2-[1-[(2-fluorophenyl)methyl]-4-piperidyl]ethyl]-[1,3]dioxolo[4,5-f]isoindole-5,7-dione] | slightly higher potency than the positive control drug; also recorded: comparable inhibition activity on acetylcholinesterase with donepezil hydrochloride | 80 nM | – | –
12 | O=C1c2cc3c(cc2C(=O)N1CCC1CCN(Cc2ccc(F)cc2)CC1)OCO3 [Compound I-4, 6-[2-[1-[(4-fluorophenyl)methyl]-4-piperidyl]ethyl]-[1,3]dioxolo[4,5-f]isoindole-5,7-dione] | slightly lower potency than the positive control drug; also recorded: comparable inhibition activity on acetylcholinesterase with donepezil hydrochloride | – | 167 nM | –
13 | Cc1ccc(CN2CCC(CCN3C(=O)c4cc5c(cc4C34CC4)OCO5)CC2)[nH]1 [Compound I-40, 6-[2-[1-[(5-methyl-1H-pyrrol-2-yl)methyl]-4-piperidyl]ethyl]spiro[[1,3]dioxolo[4,5-f]isoindole-7,1′-cyclopropane]-5-one] | relative low activity | > 2000 nM | – | –
14 | CC1c2cc3c(cc2C(=O)N1CCC1CCN(Cc2ccccc2F)CC1)OCO3 (centres unmarked) [Compound I-10, 6-[2-[1-[(2-fluorophenyl)methyl]-4-piperidyl]ethyl]-5-methyl-5H-[1,3]dioxolo[4,5-f]isoindol-7-one] | slightly lower potency than the positive control drug | – | 239 nM | –
15 | O=C1c2cc3c(cc2C2(CC2)N1CCC1CCN(Cc2ccc[nH]2)CC1)OCO3 [Compound I-39, 6-[2-[1-(1H-pyrrol-2-ylmethyl)-4-piperidyl]ethyl]spiro[[1,3]dioxolo[4,5-f]isoindole-7,1′-cyclopropane]-5-one] | relative low activity | > 2000 nM | – | –
16 | CC1(C)c2cc3c(cc2C(=O)N1CCC1CCN(Cc2ccccc2)CC1)OCO3 [Compound I-13, 6-[2-(1-benzyl-4-piperidyl)ethyl]-7,7-dimethyl-[1,3]dioxolo[4,5-f]isoindol-5-one] | relative low activity | – | – | IC50 (acetylcholinesterase; [2]): > 2000 nM
17 | CC1c2cc3c(cc2C(=O)N1CCC1CCN(Cc2ccc(F)cc2)CC1)OCO3 (centres unmarked) [Compound I-12, 6-[2-[1-[(4-fluorophenyl)methyl]-4-piperidyl]ethyl]-5-methyl-5H-[1,3]dioxolo[4,5-f]isoindol-7-one] | relative low activity | – | > 2000 nM | –
18 | O=C1c2cc3c(cc2C2(CC2)N1CCC1CCN(Cc2ccccc2C(F)(F)F)CC1)OCO3 [Compound I-22, 6-[2-[1-[[2-(trifluoromethyl)phenyl]methyl]-4-piperidyl]ethyl]spiro[[1,3]dioxolo[4,5-f]isoindole-7,1′-cyclopropane]-5-one] | relative low activity | – | > 2000 nM | –
19 | O=C1c2cc3c(cc2C2(CC2)N1CCC1CCN(Cc2ccn[nH]2)CC1)OCO3 [Compound I-41, 6-[2-[1-(1H-pyrazol-5-ylmethyl)-4-piperidyl]ethyl]spiro[[1,3]dioxolo[4,5-f]isoindole-7,1′-cyclopropane]-5-one] | even lower | 990 nM | – | –
20 | COc1ccccc1CN1CCC(CCN2C(=O)c3cc4c(cc3C23CC3)OCO4)CC1 [Compound I-26, 6-[2-[1-[(2-methoxyphenyl)methyl]-4-piperidyl]ethyl]spiro[[1, 3]dioxolo[4,5-f]isoindole-7,1′-cyclopropane]-5-one] | relative low activity | – | > 2000 nM | –
21 | CC1c2cc3c(cc2C(=O)N1CCC1CCN(Cc2cccc(F)c2)CC1)OCO3 (centres unmarked) [Compound I-11, 6-[2-[1-[(3-fluorophenyl)methyl]-4-piperidyl]ethyl]-5-methyl-5H-[1,3]dioxolo[4,5-f]isoindol-7-one] | even lower | – | 889 nM | –
22 | O=C1c2cc3c(cc2C(=O)N1CCC1CCN(Cc2cccnn2)CC1)OCO3 [Compound I-37, 6-[2-[1-(pyridazin-3-ylmethyl)-4-piperidyl]ethyl]-[1,3]dioxolo[4,5-f]isoindole-5,7-dione] | even lower | – | 905 nM | –
23 | O=C1c2cc3c(cc2CN1CCC1CCN(Cc2cccc(F)c2)CC1)OCO3 [Compound I-7, 6-[2-[1-[(3-fluorophenyl)methyl]-4-piperidyl]ethyl]-5H-[1,3]dioxolo[4,5-f]isoindol-7-one] | even lower | – | 486 nM | –
24 | O=C1c2cc3c(cc2C2(CC2)N1CCC1CCN(Cc2cccnn2)CC1)OCO3 [Compound I-38, 6-[2-[1-(pyridazin-3-ylmethyl)-4-piperidyl]ethyl]spiro[[1,3]dioxolo[4,5-f]isoindole-7,1′-cyclopropane]-5-one] | relative low activity | > 2000 nM | – | –
25 | O=C1c2cc3c(cc2C2(CC2)N1CCC1CCN(Cc2ccncc2)CC1)OCO3 [Compound I-31, 6-[2-[1-(4-pyridylmethyl)-4-piperidyl]ethyl]spiro[[1,3]dioxolo[4,5-f]isoindole-7,1′-cyclopropane]-5-one] | relative low activity | > 2000 nM | – | –
26 | CC1c2cc3c(cc2C(=O)N1CCC1CCN(Cc2ccccc2)CC1)OCO3 (centres unmarked) [Compound I-9, 6-[2-(1-benzyl-4-piperidyl)ethyl]-5-methyl-5H-[1,3]dioxolo[4,5-f]isoindol-7-one] | – | – | – | latent period day 1 ([1]; 5 mg/kg intragastric): 58.9 ± 4.0 s; latent period day 2 ([1]; 5 mg/kg intragastric): 60 ± 0 s; latent period day 3 ([1]; 5 mg/kg intragastric): 51.2 ± 11.0 s; latent period day 4 ([1]; 5 mg/kg intragastric): 53.4 ± 11.8 s; latent period day 5 ([1]; 5 mg/kg intragastric): 51.1 ± 11.5 s; times of crossing platform ([1]; 5 mg/kg intragastric): 1.27 ± 1.44; latent period day 1 ([1]; 10 mg/kg intragastric): 58.3 ± 6.5 s; latent period day 2 ([1]; 10 mg/kg intragastric): 56.6 ± 9.1 s; latent period day 3 ([1]; 10 mg/kg intragastric): 56.5 ± 6.3 s; latent period day 4 ([1]; 10 mg/kg intragastric): 51.1 ± 11.6 s; latent period day 5 ([1]; 10 mg/kg intragastric): 49.2 ± 16.9 s; times of crossing platform ([1]; 10 mg/kg intragastric): 1.80 ± 1.74
